Series [1] concerns the target T1, 5-HT2A receptor (Homo sapiens, UniProt P28223).
T1 construct: host or cells: HEK293
Kind of series: biochemical. Format: binding. To be noted: 1 nM [^3H]ketanserin, HEK293 stable cell line; read-out: 5-HT2A Receptor Ki (nM) ([^3H]ketanserin). Put shortly:
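Values reflect [^3H]ketanserin binding competition. Assay conditions were adapted from the literature.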

Series [2] concerns the target T1, 5-HT2A receptor. Kind of series: cell-based. The following applies: for EC50: Ca^2+ flux, agonist, read-out: 5-HT2A EC50. The class given is cell-based.
The target in series [3] is T2, 5-HT1A receptor (Homo sapiens, UniProt P08908).
T2 construct: host or cells: CHO cells
T2 sequence (P08908 1-422): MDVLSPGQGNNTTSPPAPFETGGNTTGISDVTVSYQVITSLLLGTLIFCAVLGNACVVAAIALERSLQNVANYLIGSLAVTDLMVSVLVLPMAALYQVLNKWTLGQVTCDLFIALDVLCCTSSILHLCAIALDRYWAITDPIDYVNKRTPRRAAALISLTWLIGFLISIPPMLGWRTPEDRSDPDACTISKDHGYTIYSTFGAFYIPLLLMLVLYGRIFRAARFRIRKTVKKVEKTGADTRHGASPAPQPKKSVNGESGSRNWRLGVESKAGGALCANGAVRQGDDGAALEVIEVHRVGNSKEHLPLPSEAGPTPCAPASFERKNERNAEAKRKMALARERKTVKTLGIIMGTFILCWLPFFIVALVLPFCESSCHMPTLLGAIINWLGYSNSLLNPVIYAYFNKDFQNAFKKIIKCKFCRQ
Description: cell-based. The following applies: Ca^2+ flux, agonist; read-out: 5-HT1A EC50.

Series [4] addresses T3, 5-HT2B receptor (Homo sapiens, UniProt P41595).
T3 construct: host or cells: HEK293
Description: cell-based. The following applies: Ca^2+ flux, agonist; for EC50: read-out: 5-HT2B EC50.

A short description of series [5]: Metabolic stability in human liver microsomes (HLM). The class given is in vitro ADME. The following applies: for t1/2: 1 μM, 0.50 mg protein per mL; for microsomal CLint at 1 μM: both sexes, human, pooled human liver microsomes, pH 7.4, 0.50 mg protein per mL. The source says:
HLM Stability. Pooled HLM from adult male and female donors (Corning 452117) were used.
In general terms: Microsomes from liver hold many membrane-bound enzymes, among them those of drug oxidation.

Series [6] addresses D2 receptor (Homo sapiens, UniProt P14416). Kind of series: FLIPR Ca^2+ flux agonist assay at D2. Format: cell-based. As to the method: Functional Assays at Adrenergic and Dopamine Receptors. Agonist activity at Alpha1A, Alpha2A, D1, and D2 receptors was determined using a FLIPR Ca^2+ flux assay at WuXi AppTec (Hong Kong) Limited according to their standard protocols. Briefly, stably transfected cells expressing the receptor of interest were grown and plated in a 384 well plate and incubated at 37° C. and 5% CO2 overnight. A solution of 250 mM probenecid in 1 mL FLIPR assay buffer was prepared fresh. This was combined with a fluorescent dye (Fluo-4 Direct™) to make a final assay concentration of 2.5 mM. […] The fluorescent dye was then added to the assay plate along with assay buffer to a final volume of 40 μL. The cell plate was incubated for 50 min at 37° C. and 5% CO2 and placed into the FLIPR Tetra along with the compound plate. 10 μL of references and compounds were then transferred from the compound plate into the cell plate and the fluorescent signal was read.

A short description of series [7]: Metabolic stability in mouse liver microsomes (MLM). Format: in vitro ADME. To be noted: 0.50 mg protein per mL; for t1/2: MLM (CD-1), 1 μM; for microsomal CLint at 1 μM: mouse, pooled mouse liver microsomes, pH 7.4, MLM (CD-1). The source says: MLM Stability Pooled MLM from CD-1 mice (BIOIVT M00501) were used.
Series [8] concerns the target 5-HT1B receptor (Homo sapiens, UniProt P28222). Description: cAMP accumulation agonist assay at 5-HT1B. The following applies: cAMP, agonist; for EC50: read-out: 5-HT1B EC50. Format: cell-based. Put shortly:
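Agonism was measured by cAMP accumulation in stably transfected cells incubated 60 min at RT. A detection reagent was then added for 60 min at RT before reading, with an 800 nM cAMP standard in blank wells.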
In general terms: cAMP levels reflect the balance of adenylyl cyclase and phosphodiesterase activity.

Setting [9] is: Ca^2+ flux, agonist, read-out: D2 EC50.

Where two headings read alike, the source gives them in different places. Bounds are passed on as bounds.

Chain of 5-HT1B receptor (P28222 whole entry): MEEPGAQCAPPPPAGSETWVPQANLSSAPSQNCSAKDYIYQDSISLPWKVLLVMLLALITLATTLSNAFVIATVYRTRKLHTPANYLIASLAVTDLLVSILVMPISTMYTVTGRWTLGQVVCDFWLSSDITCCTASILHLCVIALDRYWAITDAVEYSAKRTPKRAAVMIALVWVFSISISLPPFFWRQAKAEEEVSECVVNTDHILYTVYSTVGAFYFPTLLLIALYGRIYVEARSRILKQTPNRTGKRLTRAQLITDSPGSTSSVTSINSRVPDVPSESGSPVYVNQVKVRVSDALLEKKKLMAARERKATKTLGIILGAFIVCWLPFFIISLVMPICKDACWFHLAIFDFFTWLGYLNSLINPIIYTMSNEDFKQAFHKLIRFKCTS
T1 sequence (P28223 whole entry): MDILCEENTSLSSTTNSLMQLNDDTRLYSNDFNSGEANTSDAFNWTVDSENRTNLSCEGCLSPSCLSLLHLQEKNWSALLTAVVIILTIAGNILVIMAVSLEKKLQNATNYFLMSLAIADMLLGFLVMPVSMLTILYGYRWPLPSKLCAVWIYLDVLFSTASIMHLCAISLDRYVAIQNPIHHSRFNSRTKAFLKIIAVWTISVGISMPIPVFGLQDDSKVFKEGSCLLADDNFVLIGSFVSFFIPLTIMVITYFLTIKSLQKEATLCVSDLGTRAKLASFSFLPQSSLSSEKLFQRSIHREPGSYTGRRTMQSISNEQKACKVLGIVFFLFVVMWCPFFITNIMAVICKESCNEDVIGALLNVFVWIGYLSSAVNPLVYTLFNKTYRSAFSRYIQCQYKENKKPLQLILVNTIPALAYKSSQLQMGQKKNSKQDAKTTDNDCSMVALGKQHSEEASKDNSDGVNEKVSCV
T3 sequence (P41595 whole entry): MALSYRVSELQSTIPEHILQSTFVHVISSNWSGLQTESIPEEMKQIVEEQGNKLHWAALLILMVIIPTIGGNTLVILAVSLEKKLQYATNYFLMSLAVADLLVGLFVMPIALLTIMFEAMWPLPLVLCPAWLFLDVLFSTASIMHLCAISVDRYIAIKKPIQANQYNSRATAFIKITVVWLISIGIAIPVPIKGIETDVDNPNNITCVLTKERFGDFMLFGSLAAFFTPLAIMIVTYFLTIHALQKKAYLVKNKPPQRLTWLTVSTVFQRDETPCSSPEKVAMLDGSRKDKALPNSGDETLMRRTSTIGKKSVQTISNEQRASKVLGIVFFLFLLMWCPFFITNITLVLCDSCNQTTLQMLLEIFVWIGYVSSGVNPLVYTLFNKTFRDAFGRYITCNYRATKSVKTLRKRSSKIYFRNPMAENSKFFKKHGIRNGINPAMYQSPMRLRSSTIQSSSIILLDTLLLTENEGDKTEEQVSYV
Chain of D2 receptor (P14416 whole entry): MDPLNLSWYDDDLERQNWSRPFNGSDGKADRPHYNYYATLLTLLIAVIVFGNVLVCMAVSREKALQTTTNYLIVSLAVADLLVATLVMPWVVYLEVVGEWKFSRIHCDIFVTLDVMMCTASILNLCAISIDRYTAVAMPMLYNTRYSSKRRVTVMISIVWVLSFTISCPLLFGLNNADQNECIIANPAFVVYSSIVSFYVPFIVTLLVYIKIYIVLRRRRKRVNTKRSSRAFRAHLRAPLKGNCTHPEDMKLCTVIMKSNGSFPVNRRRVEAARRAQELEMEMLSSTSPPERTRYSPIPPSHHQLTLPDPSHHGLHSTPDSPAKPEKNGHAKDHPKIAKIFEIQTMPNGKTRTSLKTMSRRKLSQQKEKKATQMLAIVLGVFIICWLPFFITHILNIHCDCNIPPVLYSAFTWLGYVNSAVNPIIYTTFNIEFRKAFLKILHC

For the compound `CCCN1C[C@H](C(=O)N(CC)CC)C=C2c3cccc4[nH]cc(c34)C[C@H]21` [Compound 1, (6aR,9R)—N,N-diethyl-7-propyl-4,6,6a,7,8,9-hexahydroindolo[4,3-fg]quinoline-9-carboxamide], the Ki in series [1] stood at 1.06 nM. The EC50 in series [2] is 18.5 nM; in series [3], 44.4 nM; in series [4] it was 104 nM; in series [6], 2.17 nM; in series [8], 3.82 nM. The “t1/2” value in series [5] is given as 15.1 min; in series [7], 2.3 min. Besides, the microsomal CLint at 1 μM in series [5] came to 91.6 µL/min/mg; in series [7], 615 µL/min/mg.

For `CCN(CC)C(=O)[C@@H]1C=C2c3cccc4[nH]cc(c34)C[C@H]2N(CCCF)C1` [Compound 2, (6aR,9R)—N,N-diethyl-7-(3-fluoropropyl)-4,6,6a,7,8,9-hexahydroindolo[4,3-fg]quinoline-9-carboxamide], in series [1], the Ki was determined as 2.79 nM. Further, the EC50 in series [2] came out at 11.1 nM; in series [3], 25.4 nM; in series [4], 202 nM; in series [6] it was 27.7 nM; in series [8], 193 nM. In addition, the “t1/2” value in series [5] worked out at 19.061 min; in series [7] it was 2.666 min. Further, the intrinsic metabolic clearance (microsomal CLint) at 1 μM in series [5] was 72.7 µL/min/mg; in series [7] it was 520 µL/min/mg.

`CCCN1C[C@H](C(=O)N[C@H](C)CC)C=C2c3cccc4[nH]cc(c34)C[C@H]21` [Compound 3, (6aR,9R)—N—((R)-sec-butyl)-7-propyl-4,6,6a,7,8,9-hexahydroindolo[4,3-fg]quinoline-9-carboxamide]: in series [1], the Ki was determined as 1.36 nM. Also, the “selectivity for the 5-HT2A receptor over the tested adrenergic and dopamine receptors (in words)” value in series [2] (Ca^2+ flux functional assays) is “exceptional selectivity”. Also, the EC50 amounted to 1.57 nM in series [2]; 1.79 nM in series [3]; 62 nM in series [4]; 27.2 nM in series [6]; 68.8 nM in series [8]. The “t1/2” value came to 4.2 min in series [5] and 1.6 min in series [7]. Also, the results for the intrinsic clearance (microsomal CLint) at 1 μM in series [5] and in series [7] were 331 µL/min/mg and 894 µL/min/mg, respectively.

`CCCN1C[C@H](C(=O)N2[C@@H](C)C[C@@H]2C)C=C2c3cccc4[nH]cc(c34)C[C@H]21` [Compound 4, ((2S,4S)-2,4-dimethylazetidin-1-yl)((6aR,9R)-7-propyl-4,6,6a,7,8,9-hexahydroindolo[4,3-fg]quinolin-9-yl)methanone]: the Ki in series [1] worked out at 3.07 nM. Besides, the EC50 in series [2] turned out to be 21.3 nM; in series [3], 5.88 nM; in series [4] it was 511 nM; in series [6], 21 nM; in series [8], 97.6 nM. Moreover, the “t1/2” value in series [5] amounted to 10.6 min; in series [7], 0.8 min. Also, the microsomal CLint at 1 μM in series [5] amounted to 130 µL/min/mg; in series [7], 1670 µL/min/mg. In addition, in series [8], the “5-HT1B % Act @ Max Dose” value is on record as 96%.

`CCCN1C[C@H](C(=O)NC(CC)CC)C=C2c3cccc4[nH]cc(c34)C[C@H]21` [Compound 6, (6aR,9R)—N-(pentan-3-yl)-7-propyl-4,6,6a,7,8,9-hexahydroindolo[4,3-fg]quinoline-9-carboxamide]: in series [1], the Ki turned out to be 1.16 nM. Further, the EC50 was 11.3 nM in series [2]; 36.1 nM in series [3]; 253 nM in series [4]; 7.01 nM in series [6]; 201 nM in series [8]. The “t1/2” value in series [5] is recorded as 1.607 min; in series [7], 0.6 min. For the same compound, the results for the microsomal CLint at 1 μM in series [5] and in series [7] were 862 µL/min/mg and 2420 µL/min/mg, respectively.

For `CCN(CC)C(=O)[C@@H]1C=C2c3cccc4[nH]cc(c34)C[C@H]2N(Cc2ccccc2OC)C1` [Compound 10, (6aR,9R)—N,N-diethyl-7-(2-methoxybenzyl)-4,6,6a,7,8,9-hexahydroindolo[4,3-fg]quinoline-9-carboxamide], the Ki in series [1] turned out to be 32.7 nM. Moreover, the EC50 in series [2] is 643 nM; in series [3] it was 30600 nM; in series [4], more than 10000 nM; in series [6] (setting [9]) it was 983 nM; in series [8], 3190 nM. The figures for the “t1/2” value in series [5] and in series [7] were 7.3 min and 1 min, respectively. For the same compound, the microsomal CLint at 1 μM in series [5] was 190 µL/min/mg; in series [7] it was 1400 µL/min/mg.

Consider `CCN(CC)C(=O)[C@@H]1C=C2c3cccc4[nH]cc(c34)C[C@H]2N(CCc2ccccc2OC)C1` [Compound 11, (6aR,9R)—N,N-diethyl-7-(2-methoxyphenethyl)-4,6,6a,7,8,9-hexahydroindolo[4,3-fg]quinoline-9-carboxamide], for which the Ki in series [1] was 0.69 nM. For the same compound, the EC50 in series [2] was 216 nM; in series [3], 29800 nM; in series [4] it was more than 10000 nM; in series [6] (setting [9]), 854 nM; in series [8], 448 nM. In series [4], the “5-HT2B % Act @ Max Dose” value stood at 2.5%. For the same compound, the figures for the “t1/2” value in series [5] and in series [7] were 2.372 min and 0.917 min, respectively. The microsomal CLint at 1 μM was determined as 584 µL/min/mg in series [5] and 1510 µL/min/mg in series [7].

For orientation: Ki means a measure of affinity in units of concentration, obtained from inhibition or displacement. The term EC50 denotes the concentration at which the effect is half-maximal. As a reminder, the microsomal CLint is a measure of how fast metabolising enzymes remove a compound, apart from limits set by blood flow.
